Data: patent US11247990B1, “Bicyclic fused pyridine compounds as inhibitors of TAM kinases” (ARRAY BIOPHARMA INC., priority 2017, dated 2022)

Tests used:
Settings in all cases: averaged IC50
[1] = molecular target: His-tagged recombinant human AXL cytoplasmic domain (Homo sapiens (Human), UniProt P30530); test: AXL Enzyme Assay (LanthaScreen Eu Kinase Binding, TR-FRET)
How it was run: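 LanthaScreen Eu kinase binding format, incubated 60 min at 22 °C and read by TR-FRET dual-wavelength emission ratio as percent of control. IC50 taken where a 4-parameter logistic fit crosses 50 POC.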

[2] = molecular target: His-tagged recombinant human MER cytoplasmic domain (Homo sapiens (Human), UniProt Q12866); test: MER Enzyme Assay (LanthaScreen Eu Kinase Binding, TR-FRET)
His-tagged recombinant human MER cytoplasmic domain, sequence (Q12866 527-999): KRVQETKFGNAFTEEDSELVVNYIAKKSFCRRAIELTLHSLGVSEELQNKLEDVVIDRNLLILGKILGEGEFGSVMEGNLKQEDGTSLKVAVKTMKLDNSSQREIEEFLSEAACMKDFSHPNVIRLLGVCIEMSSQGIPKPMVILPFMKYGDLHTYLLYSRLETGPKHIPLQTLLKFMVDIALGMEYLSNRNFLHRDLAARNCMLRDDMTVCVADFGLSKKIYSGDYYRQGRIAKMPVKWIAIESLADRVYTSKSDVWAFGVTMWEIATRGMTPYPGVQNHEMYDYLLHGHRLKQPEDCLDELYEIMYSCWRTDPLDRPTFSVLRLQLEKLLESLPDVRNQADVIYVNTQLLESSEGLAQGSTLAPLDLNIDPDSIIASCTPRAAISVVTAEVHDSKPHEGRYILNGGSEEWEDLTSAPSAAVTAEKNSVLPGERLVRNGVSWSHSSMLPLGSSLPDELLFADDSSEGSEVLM
How it was run: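 LanthaScreen Eu kinase binding (tracer displacement) assay with His-tagged human MER cytoplasmic domain, 60 min incubation at 22 °C. TR-FRET dual-wavelength emission ratio converted to percent of control; IC50 is where the 4-parameter logistic fit crosses 50 POC.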

[3] = molecular target: GST-tagged recombinant human TYRO3 kinase domain (Homo sapiens (Human), UniProt Q06418); test: TYRO3 Enzyme Assay (LanthaScreen Eu Kinase Binding, TR-FRET)
GST-tagged recombinant human TYRO3 kinase domain, sequence (Q06418 518-790): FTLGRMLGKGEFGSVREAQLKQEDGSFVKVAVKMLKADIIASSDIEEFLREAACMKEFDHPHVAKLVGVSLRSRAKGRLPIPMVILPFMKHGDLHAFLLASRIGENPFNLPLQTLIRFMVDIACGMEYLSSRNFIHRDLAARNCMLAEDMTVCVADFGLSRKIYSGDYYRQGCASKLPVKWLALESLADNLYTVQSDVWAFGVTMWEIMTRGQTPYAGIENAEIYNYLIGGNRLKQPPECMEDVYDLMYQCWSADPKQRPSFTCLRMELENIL
How it was run: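 LanthaScreen Eu binding (tracer displacement) format read by TR-FRET after 60 min at 22 °C. Emission ratio converted to percent of control; IC50 taken where a 4-parameter logistic fit crosses 50 POC.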

His-tagged recombinant human AXL cytoplasmic domain, sequence (P30530 473-894): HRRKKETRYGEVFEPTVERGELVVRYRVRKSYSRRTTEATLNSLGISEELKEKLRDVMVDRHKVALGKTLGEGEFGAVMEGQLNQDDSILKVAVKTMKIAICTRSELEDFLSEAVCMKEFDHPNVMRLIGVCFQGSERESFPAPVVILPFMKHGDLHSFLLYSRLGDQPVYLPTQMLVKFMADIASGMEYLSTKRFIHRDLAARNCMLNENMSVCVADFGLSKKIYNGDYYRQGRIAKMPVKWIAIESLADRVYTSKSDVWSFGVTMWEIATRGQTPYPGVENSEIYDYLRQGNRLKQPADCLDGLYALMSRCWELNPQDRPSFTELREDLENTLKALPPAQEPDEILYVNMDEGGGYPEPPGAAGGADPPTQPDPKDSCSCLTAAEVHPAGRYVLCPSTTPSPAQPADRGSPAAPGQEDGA

Structure (SMILES) | IC50 [1] | IC50 [2] | IC50 [3]
CCNc1cc2c(cn1)c(-c1cnc(C)o1)nn2[C@H]1CC[C@@H](Oc2nccc(C(F)(F)F)c2F)CC1 [Example 308, N-ethyl-1-((1s,4s)-4-((3-fluoro-4-(trifluoromethyl)pyridin-2-yl)oxy)cyclohexyl)-3-(2-methyloxazol-5-yl)-1H-pyrazolo[4,3-c]pyridin-6-amine] | < 0.01 µM | < 0.01 µM | 0.1 to 1 µM
CCNc1cc2c(cn1)c(-c1cnn(C(C)(C)C#N)c1)nn2[C@H]1CC[C@@H](Oc2cn(C)nc2C(F)(F)F)CC1 [Example 280, 2-(4-(6-(ethylamino)-1-((1s,4s)-4-((1-methyl-3-(trifluoromethyl)-1H-pyrazol-4-yl)oxy)cyclohexyl)-1H-pyrazolo[4,3-c]pyridin-3-yl)-1H-pyrazol-1-yl)-2-methylpropanenitrile] | < 0.01 µM | < 0.01 µM | < 0.01 µM
CCNc1cc2c(cn1)c(N1CC3COCC3C1)nn2[C@H]1CC[C@@H](Oc2nccc(C(F)(F)F)c2F)CC1 (stereo partly drawn) [Example 342, N-ethyl-1-((1s,4s)-4((3-fluoro-4-(trifluoromethyl)pyridin-2-yl)oxy)cyclohexyl)-3-(tetrahydro-1H-furo[3,4-c]pyrrol-5(3H)-yl)-1H-pyrazolo[4,3-c]pyridin-6-amine] | < 0.01 µM | < 0.01 µM | 0.01 to 0.1 µM
CNc1cc2c(cn1)c(-c1cnn(C[C@@H](N)CO)c1)nn2[C@H]1CC[C@@H](Oc2ccccc2F)CC1 [Example 432, (R)-2-amino-3-(4-(1-((1s,4S)-4-(2-fluorophenoxy)cyclohexyl)-6-(methylamino)-1H-pyrazolo[4,3-c]pyridin-3-yl)-1H-pyrazol-1-yl)propan-1-ol] | < 0.01 µM | < 0.01 µM | < 0.01 µM
CCNc1cc2c(cn1)c(-c1cnn(C[C@@H](O)CO)c1)nn2[C@H]1CC[C@@H](Oc2cccc(F)c2Cl)CC1 [Example 437, (R)-3-(4-(1-((1s,4S)-4-(2-chloro-3-fluorophenoxy)cyclohexyl)-6-(ethylamino)-1H-pyrazolo[4,3-c]pyridin-3-yl)-1H-pyrazol-1-yl)propane-1,2-diol] | < 0.01 µM | < 0.01 µM | 0.01 to 0.1 µM
CCNc1cc2c(cn1)c(N1CCC(N(C)C)CC1)nn2[C@H]1CC[C@@H](Oc2nccc(C(F)(F)F)c2F)CC1 [Example 345, 3-(4-(dimethylamino)piperidin-1-yl)-N-ethyl-1-((1s,4s)-4-((3-fluoro-4-(trifluoromethyl)pyridin-2-yl)oxy)cyclohexyl)-1H-pyrazolo[4,3-c]pyridin-6-amine] | < 0.01 µM | < 0.01 µM | 0.01 to 0.1 µM
CCNc1cc2c(cn1)c(-c1cnn(C(C)(C)CO)c1)nn2[C@H]1CC[C@@H](Oc2nccc(C(F)(F)F)c2F)CC1 [Example 299, 2-(4-(6-(ethylamino)-1-((1s,4s)-4-((3-fluoro-4-(trifluoromethyl)pyridin-2-yl)oxy)cyclohexyl)-1H-pyrazolo[4,3-c]pyridin-3-yl)-1H-pyrazol-1-yl)-2-methylpropan-1-ol] | < 0.01 µM | < 0.01 µM | 0.01 to 0.1 µM
CCNc1cc2c(cn1)c(-c1cnn(C)c1)nn2[C@H]1CC[C@@H](Oc2nccnc2CC)CC1 [Example 190, N-ethyl-1-((1s,4s)-4-((3-ethylpyrazin-2-yl)oxy)cyclohexyl)-3-(1-methyl-1H-pyrazol-4-yl)-1H-pyrazolo[4,3-c]pyridin-6-amine] | < 0.01 µM | < 0.01 µM | 0.01 to 0.1 µM
CNc1cc2c(cn1)c(-c1cnn(C[C@@H](O)CO)c1)nn2[C@H]1CC[C@@H](Oc2cccnc2C(F)(F)F)CC1 [Example 206, ®-3-(4-(6-(methylamino)-1-((1s,4s)-4-((2-(trifluoromethyl)pyridin-3-yl)oxy)cyclohexyl)-1H-pyrazolo[4,3-c]pyridin-3-yl)-1H-pyrazol-1-yl)propane-1,2-diol] | < 0.01 µM | < 0.01 µM | < 0.01 µM
CCNc1cc2c(cn1)c(-c1cnn(C[C@@H](O)C(C)(C)O)c1)nn2[C@H]1CC[C@@H](Oc2ccccc2F)CC1 [Example 442, (R)-1-(4-(6-(ethylamino)-1-((1s,4S)-4-(2-fluorophenoxy)cyclohexyl)-1H-pyrazolo[4,3-c]pyridin-3-yl)-1H-pyrazol-1-yl)-3-methylbutane-2,3-diol] | < 0.01 µM | < 0.01 µM | 0.01 to 0.1 µM
CNc1cc2c(cn1)c(-c1cnn(C[C@@H](O)CO)c1)nn2[C@H]1CC[C@@H](Oc2ccccc2C(F)(F)F)CC1 [Example 419, (R)-3-(4-(6-(methylamino)-1-((1s,4S)-4-(2-(trifluoromethyl)phenoxy)-cyclohexyl)-1H-pyrazolo[4,3-c]pyridin-3-yl)-1H-pyrazol-1-yl)propane-1,2-diol] | < 0.01 µM | < 0.01 µM | 0.01 to 0.1 µM
CNc1cc2c(cn1)c(-c1ccc3c(c1)CN(C)C3=O)nn2[C@H]1CC[C@@H](Oc2cn(C)nc2C(F)(F)F)CC1 [Example 286, 2-methyl-5-(1-((1s,4s)-4-((1-methyl-3-(trifluoromethyl)-1H-pyrazol-4-yl)oxy)cyclohexyl)-6-(methylamino)-1H-pyrazolo[4,3-c]pyridin-3-yl)isoindolin-1-one] | < 0.01 µM | < 0.01 µM | < 0.01 µM
CCNc1cc2c(cn1)c(N1CC[C@@H](NC)C1)nn2[C@H]1CC[C@@H](Oc2nccc(C(F)(F)F)c2F)CC1 [Example 339, N-ethyl-1-((1s,4S)-4-((3-fluoro-4-(trifluoromethyl)pyridin-2-yl)oxy)cyclohexyl)-3-((R)-3-(methylamino)pyrrolidin-1-yl)-1H-pyrazolo[4,3-c]pyridin-6-amine] | < 0.01 µM | < 0.01 µM | < 0.01 µM
CCNc1cc2c(cn1)c(N1CC[C@@H](O)C1)nn2[C@H]1CC[C@@H](Oc2nccc(C(F)(F)F)c2F)CC1 [Example 488, (R)-1-(6-(ethylamino)-1-((1s,4S)-4-((3-fluoro-4-(trifluoromethyl)pyridin-2-yl)oxy)cyclohexyl)-1H-pyrazolo[4,3-c]pyridin-3-yl)pyrrolidin-3-ol] | < 0.01 µM | < 0.01 µM | 0.01 to 0.1 µM
CCNc1cc2c(cn1)c(-c1cnn(C)c1)nn2[C@H]1CC[C@@H](Oc2cccnc2F)CC1 [Example 183, N-ethyl-1-((1s,4s)-4-((2-fluoropyridin-3-yl)oxy)cyclohexyl)-3-(1-methyl-1H-pyrazol-4-yl)-1H-pyrazolo[4,3-c]pyridin-6-amine] | < 0.01 µM | < 0.01 µM | < 0.01 µM
CCNc1cc2c(cn1)c(-c1cnn(C)c1)nn2[C@H]1CC[C@@H](Oc2nccc(C(F)(F)F)c2N(C)C)CC1 [Example 350, 1-((1s,4s)-4-((3-(dimethylamino)-4-(trifluoromethyl)pyridin-2-yl)oxy)cyclohexyl)-N-ethyl-3-(1-methyl-1H-pyrazol-4-yl)-1H-pyrazolo[4,3-c]pyridin-6-amine] | < 0.01 µM | < 0.01 µM | 0.01 to 0.1 µM
CCNc1cc2c(cn1)c(-c1cnn(C[C@@H](O)CO)c1)nn2[C@H]1CC[C@@H](Oc2cccc(Cl)c2Cl)CC1 [Example 439] | < 0.01 µM | < 0.01 µM | 0.01 to 0.1 µM
CCNc1cc2c(cn1)c(-c1cnn(C)c1)nn2[C@H]1CC[C@@H](Oc2cn(C)nc2C(F)(F)F)CC1 [Example 279, N-ethyl-3-(1-methyl-1H-pyrazol-4-yl)-1-((1s,4s)-4-((1-methyl-3-(trifluoromethyl)-1H-pyrazol-4-yl)oxy)cyclohexyl)-1H-pyrazolo[4,3-c]pyridin-6-amine] | < 0.01 µM | < 0.01 µM | < 0.01 µM
CCNc1cc2c(cn1)c(-c1cnn(C[C@@H](O)CO)c1)nn2[C@H]1CC[C@@H](Oc2cccnc2C(F)(F)F)CC1 [Example 209, ®-3-(4-(6-(ethylamino)-1-((1s,4R)-4-((2-(trifluoromethyl)pyridin-3-yl)oxy)cyclohexyl)-1H-pyrazolo[4,3-c]pyridin-3-yl)-1H-pyrazol-1-yl)propane-1,2-diol] | < 0.01 µM | < 0.01 µM | < 0.01 µM
CCn1c(O[C@H]2CC[C@@H](n3nc(-c4cnn(C)c4)c4cnc(NC)cc43)CC2)cccc1=O [Example 111, 1-ethyl-6-(((1s,4s)-4-(3-(1-methyl-1H-pyrazol-4-yl)-6-(methylamino)-1H-pyrazolo[4,3-c]pyridin-1-yl)cyclohexyl)oxy)pyridin-2(1H)-one] | < 0.01 µM | < 0.01 µM | 0.01 to 0.1 µM
CCNc1cc2c(cn1)c(-c1cnn(C)c1)nn2[C@H]1CC[C@@H](Oc2cccc(C#N)c2)CC1 [Example 378, 3-(((1s,4s)-4-(6-(ethylamino)-3-(1-methyl-1H-pyrazol-4-yl)-1H-pyrazolo[4,3-c]pyridin-1-yl)cyclohexyl)oxy)benzonitrile] | < 0.01 µM | < 0.01 µM | 0.01 to 0.1 µM
CCNc1cc2c(cn1)c(-c1cnn(C[C@H](O)CO)c1)nn2[C@H]1CC[C@@H](Oc2ccc(F)cc2F)CC1 [Example 444, (S)-3-(4-(1-((1s,4R)-4-(2,4-difluorophenoxy)cyclohexyl)-6-(ethylamino)-1H-pyrazolo[4,3-c]pyridin-3-yl)-1H-pyrazol-1-yl)propane-1,2-diol] | < 0.01 µM | < 0.01 µM | 0.01 to 0.1 µM
CCNc1cc2c(cn1)c(C1CCCN(C)C1)nn2[C@H]1CC[C@@H](Oc2nccc(C(F)(F)F)c2F)CC1 (stereo partly drawn) [Example 324, N-ethyl-1-((1s,4s)-4-((3-fluoro-4-(trifluoromethyl)pyridin-2-yl)oxy)cyclohexyl)-3-(1-methylpiperidin-3-yl)-1H-pyrazolo[4,3-c]pyridin-6-amine] | < 0.01 µM | < 0.01 µM | 0.01 to 0.1 µM
